In article PMC6979384, “Characterization of the plant homeodomain (PHD) reader family for their histone tail interactions” (Epigenetics & Chromatin, 2020):

Assays:
Experiment in all cases: Histone peptide microarray
Type in all cases: binding, human
BAZ2B = test system: BAZ2B
Procedure, shortened: (§1)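 Binding read as mean relative signal from 4 replicates; microarray held 293 synthetic histone peptides with single or combinatorial PTMs. Each GST-tagged PHD reader was applied at 0.5 μM using the optimized Petell protocol.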

PHF8 = test system: PHF8
Procedure, shortened: as §1

BPTF (PB) = test system: BPTF (PB)
Procedure, shortened: as §1

PHF13 = test system: PHF13
Procedure, shortened: as §1

PHRF1 (RP) = test system: PHRF1 (RP)
Procedure, shortened: as §1

KDM5A (1) = test system: KDM5A (1)
Procedure, shortened: as §1

ING2 = test system: ING2
Procedure, shortened: as §1

KDM4C (TTP) = test system: KDM4C (TTP)
Procedure, shortened: as §1

MLL5 = test system: MLL5
Procedure, shortened: as §1

ING4 = test system: ING4
Procedure, shortened: as §1

SP140L = test system: SP140L
Procedure, shortened: as §1

CHD5 (PCC) = test system: CHD5 (PCC)
Procedure, shortened: as §1

CHD5 (PPCC) = test system: CHD5 (PPCC)
Procedure, shortened: as §1

DPF2 (PPC2W2) = test system: DPF2 (PPC2W2)
Procedure, shortened: as §1

TRIM66 (PB) = test system: TRIM66 (PB)
Procedure, shortened: as §1

CHD4 (PPCC) = test system: CHD4 (PPCC)
Procedure, shortened: as §1

PHF21A = test system: PHF21A
Procedure, shortened: as §1

ING1 = test system: ING1
Procedure, shortened: as §1

PHF2 = test system: PHF2
Procedure, shortened: as §1

AIRE (PP) = test system: AIRE (PP)
Procedure, shortened: as §1

KDM5B (1) = test system: KDM5B (1)
Procedure, shortened: as §1

KDM5B (3) = test system: KDM5B (3)
Procedure, shortened: as §1

MORC3 (CW) = test system: MORC3 (CW)
Procedure, shortened: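 Steps: express and purify GST-tagged PHD reader; incubate 0.5 μM protein on a peptide microarray (293 histone peptides, single or combined PTMs) following an optimized protocol; average signal across 4 replicates.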

PHF23 = test system: PHF23
Procedure, shortened: as §1

KDM5A (3) = test system: KDM5A (3)
Procedure, shortened: as §1

ING3 = test system: ING3
Procedure, shortened: as §1

KDM7A = test system: KDM7A
Procedure, shortened: as §1

ING5 = test system: ING5
Procedure, shortened: as §1

RAG2 = test system: RAG2
Procedure, shortened: as §1

TAF3 = test system: TAF3
Procedure, shortened: as §1

DIDO1 = test system: DIDO1
Procedure, shortened: as §1

Substance: H4K5ac + K8ac + K16ac: H4 1-23
- Array Heatmap value (peptide array signal) (BAZ2B; BAZ2B, sheet "Array Heatmap", each array performed twice, total n = 4): 0.469
- Array Heatmap value (peptide array signal) (PHF8; PHF8, sheet "Array Heatmap", each array performed twice, total n = 4): 0.3765
- Array Heatmap value (peptide array signal) (BPTF (PB); BPTF (PB), sheet "Array Heatmap", each array performed twice, total n = 4): 0.3802
- Array Heatmap value (peptide array signal) (PHF13; PHF13, sheet "Array Heatmap", each array performed twice, total n = 4): 0.6186
- Array Heatmap value (peptide array signal) (PHRF1 (RP); PHRF1 (RP), sheet "Array Heatmap", each array performed twice, total n = 4): 0.4907
- Array Heatmap value (peptide array signal) (KDM5A (1); KDM5A (1), sheet "Array Heatmap", each array performed twice, total n = 4): 0.4528
- Array Heatmap value (peptide array signal) (ING2; ING2, sheet "Array Heatmap", each array performed twice, total n = 4): 0.5942
- Array Heatmap value (peptide array signal) (KDM4C (TTP); KDM4C (TTP), sheet "Array Heatmap", each array performed twice, total n = 4): 0.487
- Array Heatmap value (peptide array signal) (MLL5; MLL5, sheet "Array Heatmap", each array performed twice, total n = 4): 0.5646
- Array Heatmap value (peptide array signal) (ING4; ING4, sheet "Array Heatmap", each array performed twice, total n = 4): 0.4699
- Array Heatmap value (peptide array signal) (SP140L; SP140L, sheet "Array Heatmap", each array performed twice, total n = 4): 0.3822
- Array Heatmap value (peptide array signal) (CHD5 (PCC); CHD5 (PCC), sheet "Array Heatmap", each array performed twice, total n = 4): 0.7848
- Array Heatmap value (peptide array signal) (CHD5 (PPCC); CHD5 (PPCC), sheet "Array Heatmap", each array performed twice, total n = 4): 0.5628
- Array Heatmap value (peptide array signal) (DPF2 (PPC2W2); DPF2 (PPC2W2), sheet "Array Heatmap", each array performed twice, total n = 4): 0.7091
- Array Heatmap value (peptide array signal) (TRIM66 (PB); TRIM66 (PB), sheet "Array Heatmap", each array performed twice, total n = 4): 0.6293
- Array Heatmap value (peptide array signal) (CHD4 (PPCC); CHD4 (PPCC), sheet "Array Heatmap", each array performed twice, total n = 4): 0.6069
- Array Heatmap value (peptide array signal) (PHF21A; PHF21A, sheet "Array Heatmap", each array performed twice, total n = 4): 0.485
- Array Heatmap value (peptide array signal) (ING1; ING1, sheet "Array Heatmap", each array performed twice, total n = 4): 0.5586
- Array Heatmap value (peptide array signal) (PHF2; PHF2, sheet "Array Heatmap", each array performed twice, total n = 4): 0.5897
- Array Heatmap value (peptide array signal) (AIRE (PP); AIRE (PP), sheet "Array Heatmap", each array performed twice, total n = 4): 0.4269
- Array Heatmap value (peptide array signal) (KDM5B (1); KDM5B (1), sheet "Array Heatmap", each array performed twice, total n = 4): 0.6453
- Array Heatmap value (peptide array signal) (KDM5B (3); KDM5B (3), sheet "Array Heatmap", each array performed twice, total n = 4): 0.4621
- Array Heatmap value (peptide array signal) (MORC3 (CW); MORC3 (CW), sheet "Array Heatmap", each array performed twice, total n = 4): 0.3785
- Array Heatmap value (peptide array signal) (PHF23; PHF23, sheet "Array Heatmap", each array performed twice, total n = 4): 0.5402
- Array Heatmap value (peptide array signal) (KDM5A (3); KDM5A (3), sheet "Array Heatmap", each array performed twice, total n = 4): 0.4685
- Array Heatmap value (peptide array signal) (ING3; ING3, sheet "Array Heatmap", each array performed twice, total n = 4): 0.5105
- Array Heatmap value (peptide array signal) (KDM7A; KDM7A, sheet "Array Heatmap", each array performed twice, total n = 4): 0.3432
- Array Heatmap value (peptide array signal) (ING5; ING5, sheet "Array Heatmap", each array performed twice, total n = 4): 0.3649
- Array Heatmap value (peptide array signal) (RAG2; RAG2, sheet "Array Heatmap", each array performed twice, total n = 4): 0.2519
- Array Heatmap value (peptide array signal) (TAF3; TAF3, sheet "Array Heatmap", each array performed twice, total n = 4): 0.2628
- Array Heatmap value (peptide array signal) (DIDO1; DIDO1, sheet "Array Heatmap", each array performed twice, total n = 4): 0.7386

Substance: H4K12ac + K16ac + K20me3: H4 11-27
- Array Heatmap signal, BAZ2B (BAZ2B; GST-tagged BAZ2B, histone peptide array, arrays performed twice, n of 4): 0.5532
- Array Heatmap signal, PHF8 (PHF8; GST-tagged PHF8, histone peptide array, arrays performed twice, n of 4): 0.3563
- Array Heatmap signal, BPTF (PB) (BPTF (PB); GST-tagged BPTF (PB = PHD + Bromodomain), histone peptide array, arrays performed twice, n of 4): 0.3647
- Array Heatmap signal, PHF13 (PHF13; GST-tagged PHF13, histone peptide array, arrays performed twice, n of 4): 0.6523
- Array Heatmap signal, PHRF1 (RP) (PHRF1 (RP); GST-tagged PHRF1 (RP), histone peptide array, arrays performed twice, n of 4): 0.4386
- Array Heatmap signal, KDM5A (1) (KDM5A (1); GST-tagged KDM5A (1), histone peptide array, arrays performed twice, n of 4): 0.5006
- Array Heatmap signal, ING2 (ING2; GST-tagged ING2, histone peptide array, arrays performed twice, n of 4): 0.5812
- Array Heatmap signal, KDM4C (TTP) (KDM4C (TTP); GST-tagged KDM4C (TTP = Tandem Tudor domain + PHD), histone peptide array, arrays performed twice, n of 4): 0.5508
- Array Heatmap signal, MLL5 (MLL5; GST-tagged MLL5, histone peptide array, arrays performed twice, n of 4): 0.5614
- Array Heatmap signal, ING4 (ING4; GST-tagged ING4, histone peptide array, arrays performed twice, n of 4): 0.5105
- Array Heatmap signal, SP140L (SP140L; GST-tagged SP140L, histone peptide array, arrays performed twice, n of 4): 0.368
- Array Heatmap signal, CHD5 (PCC) (CHD5 (PCC); GST-tagged CHD5 (PCC = PHD + Dual Chromodomain), histone peptide array, arrays performed twice, n of 4): 0.9097
- Array Heatmap signal, CHD5 (PPCC) (CHD5 (PPCC); GST-tagged CHD5 (PPCC = Dual PHD + Dual Chromodomain), histone peptide array, arrays performed twice, n of 4): 0.6012
- Array Heatmap signal, DPF2 (PPC2W2) (DPF2 (PPC2W2); GST-tagged DPF2 (PPC2W2 = Dual PHD + C2W2-type Zn-finger), histone peptide array, arrays performed twice, n of 4): 0.7109
- Array Heatmap signal, TRIM66 (PB) (TRIM66 (PB); GST-tagged TRIM66 (PB = PHD + Bromodomain), histone peptide array, arrays performed twice, n of 4): 0.6534
- Array Heatmap signal, CHD4 (PPCC) (CHD4 (PPCC); GST-tagged CHD4 (PPCC = Dual PHD + Dual Chromodomain), histone peptide array, arrays performed twice, n of 4): 0.6123
- Array Heatmap signal, PHF21A (PHF21A; GST-tagged PHF21A, histone peptide array, arrays performed twice, n of 4): 0.52
- Array Heatmap signal, ING1 (ING1; GST-tagged ING1, histone peptide array, arrays performed twice, n of 4): 0.5304
- Array Heatmap signal, PHF2 (PHF2; GST-tagged PHF2, histone peptide array, arrays performed twice, n of 4): 0.4705
- Array Heatmap signal, AIRE (PP) (AIRE (PP); GST-tagged AIRE (PP), histone peptide array, arrays performed twice, n of 4): 0.5868
- Array Heatmap signal, KDM5B (1) (KDM5B (1); GST-tagged KDM5B (1), histone peptide array, arrays performed twice, n of 4): 0.6527
- Array Heatmap signal, KDM5B (3) (KDM5B (3); GST-tagged KDM5B (3), histone peptide array, arrays performed twice, n of 4): 0.5038
- Array Heatmap signal, MORC3 (CW) (MORC3 (CW); GST-tagged MORC3 (CW = CW-type Zn-finger), histone peptide array, arrays performed twice, n of 4): 0.4027
- Array Heatmap signal, PHF23 (PHF23; GST-tagged PHF23, histone peptide array, arrays performed twice, n of 4): 0.5129
- Array Heatmap signal, KDM5A (3) (KDM5A (3); GST-tagged KDM5A (3), histone peptide array, arrays performed twice, n of 4): 0.4096
- Array Heatmap signal, ING3 (ING3; GST-tagged ING3, histone peptide array, arrays performed twice, n of 4): 0.4869
- Array Heatmap signal, KDM7A (KDM7A; GST-tagged KDM7A, histone peptide array, arrays performed twice, n of 4): 0.4502
- Array Heatmap signal, ING5 (ING5; GST-tagged ING5, histone peptide array, arrays performed twice, n of 4): 0.3933
- Array Heatmap signal, RAG2 (RAG2; GST-tagged RAG2, histone peptide array, arrays performed twice, n of 4): 0.2525
- Array Heatmap signal, TAF3 (TAF3; GST-tagged TAF3, histone peptide array, arrays performed twice, n of 4): 0.2674
- Array Heatmap signal, DIDO1 (DIDO1; GST-tagged DIDO1, histone peptide array, arrays performed twice, n of 4): 0.6408
